Measurements: the CheMixHub viscosity set
Where “and” joins values, the source holds several entries; their conditions need not be identical. Equal values may be shown once. ± gives the uncertainty stated by the source.

Assay: xn = mol fraction of the nth substance listed

OC1CCCCC1 + Cc1ccc(Cl)cc1
303.15 K, 101 kPa
Settings	viscosity [mPa·s]
x1 = 0.1115	4.565 ± 0.55
x1 = 0.2202	8.427 ± 1
x1 = 0.3262	12.25 ± 1.5
x1 = 0.4296	16.24 ± 2
x1 = 0.5305	20.28 ± 2.4
x1 = 0.6289	24.45 ± 3
x1 = 0.725	28.53 ± 3.5
x1 = 0.8188	32.85 ± 4
x1 = 0.9105	36.99 ± 4.5

O=C1O[C@H]([C@@H](O)CO)C(O)=C1O + O
Settings	viscosity
293.15 K, 101 kPa, x1 = 0.00359	1.078 ± 0.023 mPa·s and 1.081 ± 0.023 mPa·s and 1.077 ± 0.017 mPa·s
293.15 K, 101 kPa, x1 = 0.005375	1.124 ± 0.024 mPa·s and 1.122 ± 0.024 mPa·s and 1.122 ± 0.018 mPa·s
293.15 K, 101 kPa, x1 = 0.007156	1.162 ± 0.019 mPa·s
293.15 K, 101.3 kPa, x1 = 0.0001803	1.013 ± 0.06 mPa·s
293.15 K, 101.3 kPa, x1 = 0.00036	1.021 ± 0.06 mPa·s
293.15 K, 101.3 kPa, x1 = 0.0005398	1.029 ± 0.06 mPa·s
298.15 K, 101 kPa, x1 = 0.000364	0.899 ± 0.009 mPa·s and 0.8985 ± 0.0083 mPa·s
298.15 K, 101 kPa, x1 = 0.000657	0.904 ± 0.009 mPa·s and 0.9039 ± 0.0084 mPa·s
298.15 K, 101 kPa, x1 = 0.001	0.823 ± 0.082 mPa·s
298.15 K, 101 kPa, x1 = 0.00125	0.916 ± 0.009 mPa·s and 0.9161 ± 0.0085 mPa·s
298.15 K, 101 kPa, x1 = 0.00155	0.922 ± 0.009 mPa·s and 0.9216 ± 0.0086 mPa·s
298.15 K, 101 kPa, x1 = 0.001665	0.9245 ± 0.0066 mPa·s
298.15 K, 101 kPa, x1 = 0.001856	0.927 ± 0.009 mPa·s and 0.9273 ± 0.0086 mPa·s
298.15 K, 101 kPa, x1 = 0.002776	0.9451 ± 0.0067 mPa·s
298.15 K, 101 kPa, x1 = 0.003	0.835 ± 0.084 mPa·s
298.15 K, 101 kPa, x1 = 0.005	0.847 ± 0.085 mPa·s
298.15 K, 101 kPa, x1 = 0.005396	0.9979 ± 0.0069 mPa·s
298.15 K, 101 kPa, x1 = 0.009999	1.1 ± 0.0074 mPa·s
298.15 K, 101.3 kPa, x1 = 0.0001803	0.905 ± 0.06 mPa·s
298.15 K, 101.3 kPa, x1 = 0.00036	0.913 ± 0.06 mPa·s
298.15 K, 101.3 kPa, x1 = 0.0005398	0.918 ± 0.06 mPa·s
303.15 K, 101 kPa, x1 = 0.001798	0.8267 ± 0.017 mPa·s and 0.825 ± 0.014 mPa·s
303.15 K, 101 kPa, x1 = 0.0018	0.8248 ± 0.014 mPa·s
303.15 K, 101 kPa, x1 = 0.00359	0.8564 ± 0.018 mPa·s and 0.8524 ± 0.014 mPa·s
303.15 K, 101 kPa, x1 = 0.005375	0.8897 ± 0.019 mPa·s and 0.8876 ± 0.019 mPa·s and 0.8876 ± 0.015 mPa·s
303.15 K, 101 kPa, x1 = 0.007154	0.9213 ± 0.019 mPa·s and 0.9197 ± 0.019 mPa·s
303.15 K, 101 kPa, x1 = 0.007156	0.916 ± 0.015 mPa·s
303.15 K, 101.3 kPa, x1 = 0.0001803	0.812 ± 0.06 mPa·s
303.15 K, 101.3 kPa, x1 = 0.00036	0.817 ± 0.06 mPa·s
303.15 K, 101.3 kPa, x1 = 0.0005398	0.821 ± 0.06 mPa·s
308.15 K, 101 kPa, x1 = 0.000364	0.724 ± 0.008 mPa·s and 0.7239 ± 0.0068 mPa·s
308.15 K, 101 kPa, x1 = 0.000657	0.728 ± 0.008 mPa·s and 0.7282 ± 0.0069 mPa·s
308.15 K, 101 kPa, x1 = 0.0007676	0.7308 ± 0.0059 mPa·s
308.15 K, 101 kPa, x1 = 0.00125	0.738 ± 0.008 mPa·s and 0.7377 ± 0.007 mPa·s
308.15 K, 101 kPa, x1 = 0.00155	0.743 ± 0.008 mPa·s and 0.7431 ± 0.007 mPa·s
308.15 K, 101 kPa, x1 = 0.001665	0.7425 ± 0.0059 mPa·s
308.15 K, 101 kPa, x1 = 0.001856	0.748 ± 0.008 mPa·s and 0.7477 ± 0.0075 mPa·s
308.15 K, 101 kPa, x1 = 0.002776	0.7609 ± 0.006 mPa·s
308.15 K, 101 kPa, x1 = 0.005396	0.8018 ± 0.0062 mPa·s
308.15 K, 101 kPa, x1 = 0.006205	0.8139 ± 0.0062 mPa·s
308.15 K, 101 kPa, x1 = 0.009999	0.8791 ± 0.0065 mPa·s
308.15 K, 101.3 kPa, x1 = 0.0001803	0.733 ± 0.06 mPa·s
308.15 K, 101.3 kPa, x1 = 0.00036	0.738 ± 0.06 mPa·s
308.15 K, 101.3 kPa, x1 = 0.0005398	0.743 ± 0.06 mPa·s
313.15 K, 101 kPa, x1 = 0.001798	0.6755 ± 0.014 mPa·s and 0.6783 ± 0.012 mPa·s
313.15 K, 101 kPa, x1 = 0.0018	0.6734 ± 0.012 mPa·s
313.15 K, 101 kPa, x1 = 0.00359	0.6979 ± 0.012 mPa·s
313.15 K, 101 kPa, x1 = 0.005375	0.7227 ± 0.015 mPa·s and 0.7222 ± 0.012 mPa·s
313.15 K, 101 kPa, x1 = 0.007154	0.7485 ± 0.016 mPa·s and 0.7473 ± 0.016 mPa·s
313.15 K, 101 kPa, x1 = 0.007156	0.7432 ± 0.013 mPa·s
313.15 K, 101.3 kPa, x1 = 0.0001803	0.668 ± 0.06 mPa·s
313.15 K, 101.3 kPa, x1 = 0.00036	0.671 ± 0.06 mPa·s
313.15 K, 101.3 kPa, x1 = 0.0005398	0.676 ± 0.06 mPa·s
318.15 K, 101 kPa, x1 = 0.000364	0.6 ± 0.008 mPa·s and 0.5998 ± 0.0057 mPa·s
318.15 K, 101 kPa, x1 = 0.000657	0.604 ± 0.008 mPa·s and 0.6039 ± 0.0058 mPa·s
318.15 K, 101 kPa, x1 = 0.0007676	0.6078 ± 0.0055 mPa·s
318.15 K, 101 kPa, x1 = 0.000952	0.608 ± 0.008 mPa·s and 0.6081 ± 0.0058 mPa·s
318.15 K, 101 kPa, x1 = 0.00125	0.612 ± 0.008 mPa·s and 0.6122 ± 0.0059 mPa·s
318.15 K, 101 kPa, x1 = 0.00155	0.616 ± 0.008 mPa·s
318.15 K, 101 kPa, x1 = 0.001665	0.6147 ± 0.0055 mPa·s
318.15 K, 101 kPa, x1 = 0.001856	0.621 ± 0.008 mPa·s
318.15 K, 101 kPa, x1 = 0.002776	0.6296 ± 0.0055 mPa·s
318.15 K, 101 kPa, x1 = 0.006205	0.6736 ± 0.0057 mPa·s
318.15 K, 101 kPa, x1 = 0.009999	0.725 ± 0.0059 mPa·s
323.15 K, 101 kPa, x1 = 0.001798	0.5655 ± 0.012 mPa·s and 0.5637 ± 0.01 mPa·s
323.15 K, 101 kPa, x1 = 0.0018	0.5616 ± 0.01 mPa·s
323.15 K, 101 kPa, x1 = 0.00359	0.5832 ± 0.012 mPa·s and 0.5805 ± 0.01 mPa·s
323.15 K, 101 kPa, x1 = 0.005375	0.6022 ± 0.013 mPa·s and 0.6013 ± 0.011 mPa·s
323.15 K, 101 kPa, x1 = 0.007154	0.6221 ± 0.013 mPa·s and 0.6216 ± 0.013 mPa·s
323.15 K, 101 kPa, x1 = 0.007156	0.6179 ± 0.011 mPa·s

CS(C)=O + c1ccccc1
viscosity [mPa·s], 101.3 kPa
Settings	x1 = 0.1043	x1 = 0.2048	x1 = 0.3059	x1 = 0.4069	x1 = 0.5105	x1 = 0.6085	x1 = 0.7063	x1 = 0.8049	x1 = 0.9029
298.15 K	0.669 ± 0.018	0.743 ± 0.02	0.829 ± 0.021	0.923 ± 0.023	1.036 ± 0.026	1.169 ± 0.029	1.317 ± 0.032	1.492 ± 0.036	1.712 ± 0.041
303.15 K	0.622 ± 0.017	0.69 ± 0.018	0.766 ± 0.02	0.853 ± 0.022	0.955 ± 0.024	1.071 ± 0.027	1.207 ± 0.03	1.367 ± 0.033	1.562 ± 0.038
308.15 K	0.581 ± 0.016	0.643 ± 0.017	0.714 ± 0.019	0.796 ± 0.021	0.884 ± 0.023	0.99 ± 0.025	1.111 ± 0.028	1.258 ± 0.031	1.426 ± 0.035

CCCCCCCO + C1CCCCC1
viscosity [mPa·s]
Settings	293.15 K	303.15 K	313.15 K	323.15 K
100 kPa, x2 = 0.0812	6.08 ± 0.49	4.38 ± 0.35	3.22 ± 0.26	2.46 ± 0.2
100 kPa, x2 = 0.1614	5.3 ± 0.43	3.79 ± 0.3	2.82 ± 0.23	2.16 ± 0.17
100 kPa, x2 = 0.2386	4.61 ± 0.37	3.28 ± 0.26	2.47 ± 0.2	1.91 ± 0.15
100 kPa, x2 = 0.3496	3.76 ± 0.3	2.69 ± 0.22	2.05 ± 0.16	1.59 ± 0.13
100 kPa, x2 = 0.4387	3.17 ± 0.25	2.28 ± 0.18	1.75 ± 0.14	1.38 ± 0.11
100 kPa, x2 = 0.5596	2.47 ± 0.2	1.81 ± 0.15	1.41 ± 0.11	1.12 ± 0.09
100 kPa, x2 = 0.6491	2.02 ± 0.16	1.52 ± 0.12	1.18 ± 0.1	0.95 ± 0.08
100 kPa, x2 = 0.7411	1.64 ± 0.13	1.27 ± 0.1	1 ± 0.08	0.82 ± 0.07
100 kPa, x2 = 0.8503	1.28 ± 0.1	1.03 ± 0.08	0.83 ± 0.07	0.7 ± 0.06
100 kPa, x2 = 0.9397	1.07 ± 0.09	0.87 ± 0.07	0.72 ± 0.06	0.62 ± 0.05
101.33 kPa, x1 = 0.0996	–	0.9648 ± 0.012	–	–
101.33 kPa, x1 = 0.197	–	1.134 ± 0.014	–	–
101.33 kPa, x1 = 0.3024	–	1.357 ± 0.016	–	–
101.33 kPa, x1 = 0.3923	–	1.585 ± 0.019	–	–
101.33 kPa, x1 = 0.5062	–	1.936 ± 0.023	–	–
101.33 kPa, x1 = 0.6052	–	2.307 ± 0.027	–	–
101.33 kPa, x1 = 0.7008	–	2.749 ± 0.032	–	–
101.33 kPa, x1 = 0.795	–	3.258 ± 0.037	–	–
101.33 kPa, x1 = 0.884	–	3.84 ± 0.043	–	–
